Measured values as given in patent US7326384B2, “Method and apparatus for detecting physicochemical changes emitted by biological sample” (Matsushita Electric Industrial Co., Ltd., priority 2001, dated 2008).

Assays:
[1] = tested on: ion channel of a Lymnaea stagnail neuron; assay: Extracellular recording of neuron before and after applying Carbachol, normal distribution of standard deviations (apparatus of FIG. 9); assay type: cell-based; conditions: after applying 50 μM Carbachol; 10 seconds data; FIG. 13
Text: FIG. 9 is a conceptual diagram showing a configuration of an apparatus comprising the above-described device for detecting physicochemical changes emitted by a biological sample, which is configured to measure and extract the ion channel activity of the biological sample. The apparatus is the same as the apparatus of FIG. 8, except that the normal distribution approximation section 103, the average/half-width calculation section 106 and the activity categorization section 109 are employed in place of the average calculation section 105 and the activity calculation section 108. Communications between each section are indicated by a dashed line or a solid line in FIG. 9. […]
Before and after 50 μM-concentration Carbachol is applied to a Lymnaea stagnail neuron, signals were obtained from the measurement section (signal source) 101, and the standard deviation of the signals was calculated in a manner similar to that of Example 1. […]

[2] = tested on: ion channel of a Lymnaea stagnail neuron; assay: Extracellular recording of neuron electrical signal at increasing Carbachol concentrations (apparatus of FIG. 8); assay type: cell-based; conditions: Carbachol 0, 0.1, 0.3, 1, 3, 10, 30 and 100 μM; 10 seconds time-series data; FIG. 12
Text: FIG. 8 is a conceptual diagram showing a configuration of an apparatus comprising the above-described device for detecting physicochemical changes emitted by a biological sample, which is configured to measure and extract the ion channel activity of the biological sample. The apparatus comprises a measurement section (signal source) 101 comprising a device for detecting physicochemical changes emitted by the biological sample and measuring an action potential generated by a neuron, a unit standard deviation calculation section 102 for sampling a signal from the measurement section 101 and calculating the standard deviation of the signal, an average calculation section 105 for calculating the average of the obtained standard deviation, an activity calculation section 108 for calculating the ion channel activity of a cell from the average of the standard deviation output by the average calculation section 105, and a data displaying section 110 for displaying the calculated activity. Communications between each section are indicated by a dashed line or a solid line in FIG. 8. Note that the unit standard deviation calculation section 102, and the average calculation section 105, and the activity calculation section 108 may be representatively software programs which are recorded in a hard disk in a computer. The data displaying section 110 may be a CRT. […]

`C[N+](C)(C)CCOC(N)=O` [Carbachol] was tested, and the “average of the normal distribution of standard deviation values every 5 miliseconds” value [1] was 0.703 and the “ion channel activation (average of the standard deviation every 100 miliseconds)” value [2] was “activated depending on the Carbachol concentration”.
